Experimental data taken from patent US11827628B2, “Compositions and methods for inhibition of the JAK pathway” (Rigel Pharmaceuticals, Inc., priority 2005, dated 2023).
pIC50: −log10 of the molar value. Where two headings read alike, the source gives them in different places.

How the values were obtained:
[1] = tested on: up-regulation of ICAM-1 (CD54) by IFNγ in A549 lung epithelial cells; assay: A549 Epithelial Line Stimulated with IFNγ (ICAM-1 surface expression, FACS); assay type: cell-based, human; settings: ICAM-1 expression by FACS, read-out: IC50, Example 43
Excerpt: The activity of the compounds of the invention may additionally be characterized by assaying the effect of the 2,4-substituted pyrimidinediamine compounds described herein on A549 lung epithelial cells and U937 cells. A549 lung epithelial cells and U937 cells up-regulate ICAM-1 (CD54) surface expression in response to a variety of different stimuli. Therefore, using ICAM-1 expression as readout, test compound effects on different signaling pathways can be assessed in the same cell type. Stimulation with IL-1β through the IL-1β receptor activates the TRAF6/NFκB pathway resulting in up-regulation of ICAM-1. IFNγ induces ICAM-1 up-regulation through activation of the JAK1/JAK2 pathway. The up-regulation of ICAM-1 can be quantified by flow cytometry across a compound dose curve and EC50, values are calculated. An exemplary assays of this type are described in greater detail in Examples 43 and 44
A549 lung epithelial cells up-regulate ICAM-1 (CD54) surface expression in response to a variety of different stimuli. Therefore, using ICAM-1 expression as readout, compound effects on different signaling pathways can be assessed in the same cell type. IFNγ up-regulates ICAM-1 through activation of the JAK/Stat pathway. In this example, the up-regulation of ICAM-1 by IFNγ was assessed.
The A549 lung epithelial carcinoma cell line originated from the American Type Culture Collection. Routine culturing was with F12K media (Mediatech Inc., Lenexa, KS, Cat. No. 10-025-CV) with 10% fetal bovine serum, 100 I.U. penicillin and […] streptomycin (complete F12k media). Cells were incubated in a humidified atmosphere of 5% CO2 at 37° C. Prior to use in the assay, A549 cells were washed with PBS and trypsinized (Mediatech Inc., Cat. No. 25-052-CI) to lift the cells. The trypsin cell suspension was neutralized with complete F12K media and centrifuged to pellet the cells. The cell pellet was resuspended in complete F12K media at a concentration of 2.0×10^5/mL. Cells were seeded at 20,000 per well, 100 μL total volume, in a flat bottom tissue culture plate and allowed to adhere overnight.
On day two, A549 cells were pre-incubated with a 2,4-substituted pyrimidinediamine test compound or DMSO (control) (Sigma-Aldrich, St. Louis, MO, Catalog No. D2650) for 1 hour. The cells were then stimulated with IFNγ (75 ng/mL) (Peprotech Inc., Rocky Hill, NJ, Cat. No. 300-02) and allowed to incubate for 24 hours. The final test compound dose range was 30 μM to 14 nM in 200 μL F12K media containing 5% FBS, 0.3% DMSO.
On day three, the cell media was removed and the cells were washed with 200 μL PBS (phosphate buffered saline). Each well was trypsinized to dissociate the cells, then neutralized by addition of 200 μL complete F12K media. Cells were pelleted and stained with an APC conjugated mouse anti-human ICAM-1 (CD54) (BD Pharmingen, San Diego, CA, Catalog #559771) antibody for 20 minutes at 4° C. Cells were washed with ice cold FACS buffer (PBS+2% FBS) and surface ICAM-1 expression was analyzed by flow cytometry. Detection was performed using a BD LSR I System Flow Cytometer, purchased from BD Biosciences of San Jose, California Events were gated for live scatter and the geometric mean was calculated (Becton-Dickinson CellQuest software version 3.3, Franklin Lakes, NJ). Geometric means were plotted against the compound concentration to generate a dose response curve.

[2] = tested on: IL-4 stimulated expression of CD23 in human Ramos B cells (JAK-1 and JAK-3); assay: Assay for Ramos B-Cell Line Stimulated with IL-4 (CD23 upregulation, FACS); assay type: cell-based; settings: Ramos B-cell line stimulated with IL-4, CD23 expression by FACS, read-out: IC50, Example 41
In short: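 Human Ramos B cells (5×10^4 per point, RPMI 5% serum) pre-incubated 1 h at 37 °C with compound or DMSO, then stimulated with IL-4 at 50 units/mL final for 20-24 h. CD23 upregulation measured by anti-CD23-PE staining and flow cytometry; IC50 derived.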

[3] = Homo sapiens, A549, A549 epithelial line stimulated with IFNγ
[4] = A549 epithelial line stimulated with IFNγ

Row | pIC50 [1, 3] | pIC50 ([2]; Homo sapiens, Ramos) | pIC50 [1, 4] | pIC50 [2] | Compound
1 | 4.51 | 6.51 |  |  | Cc1cc(Nc2nc(Nc3ccc(S(=O)(=O)N4CCN(C)CC4)cc3)ncc2F)cc(C)c1OCC#N [Compound I-40, N4-(4-Cyanomethoxy-3,5-dimethylphenyl)-5-fluoro-N2-[4-(4-methylpiperazin-1-yl)sulfonylphenyl]-2,4-pyrimidinediamine]
2 |  |  | 4.68 | 6.28 | CN1CCN(S(=O)(=O)c2ccc(Nc3ncc(F)c(Nc4cccc(OCC#N)c4)n3)cc2)CC1 [Compound I-6, N4-(3-Cyanomethoxy)phenyl-5-fluoro-N2-[4-(4-methylpiperazin-1-yl)sulfonyl]phenyl-2,4-pyrimidinediamine]
3 |  |  | 4.52 | 5.78 | CN1CCN(S(=O)(=O)c2cccc(Nc3ncc(F)c(Nc4cccc(OCC#N)c4)n3)c2)CC1 [Compound I-5, N4-(3-Cyanomethoxy)phenyl-5-fluoro-N2-[3-(4-methylpiperazin-1-yl)sulfonyl]phenyl-2,4-pyrimidinediamine]
4 | 4.99 | 7.43 |  |  | N#CCOc1ccc(Nc2nc(Nc3ccc(S(N)(=O)=O)cc3)ncc2F)cc1Cl [Compound I-41, N2-(4-Aminosulfonylphenyl)-N4-(3-chloro-4-cyanomethoxyphenyl)-5-fluoro-2,4-pyrimidinediamine]
